How the values were obtained:
Test in all cases: KinomeScan profiling
Assay type in all cases: binding
[1] = molecular target: T1, ABL2 (Homo sapiens, UniProt P42684); conditions: ABL2, 1 μM; read-out: % control
T1 construct: purchased KinomeScan®
Summary of the method: (§1)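 Test agents were profiled at a single concentration of 1 μM (DMSO vehicle) on a near-complete set of 468 kinases. Signal is reported relative to vehicle (100%) and a fully displacing control (0%).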

[2] = molecular target: T2, GRK3 (Homo sapiens, UniProt P35626); conditions: GRK3, 1 μM; read-out: % control
T2 sequence (P35626 1-688): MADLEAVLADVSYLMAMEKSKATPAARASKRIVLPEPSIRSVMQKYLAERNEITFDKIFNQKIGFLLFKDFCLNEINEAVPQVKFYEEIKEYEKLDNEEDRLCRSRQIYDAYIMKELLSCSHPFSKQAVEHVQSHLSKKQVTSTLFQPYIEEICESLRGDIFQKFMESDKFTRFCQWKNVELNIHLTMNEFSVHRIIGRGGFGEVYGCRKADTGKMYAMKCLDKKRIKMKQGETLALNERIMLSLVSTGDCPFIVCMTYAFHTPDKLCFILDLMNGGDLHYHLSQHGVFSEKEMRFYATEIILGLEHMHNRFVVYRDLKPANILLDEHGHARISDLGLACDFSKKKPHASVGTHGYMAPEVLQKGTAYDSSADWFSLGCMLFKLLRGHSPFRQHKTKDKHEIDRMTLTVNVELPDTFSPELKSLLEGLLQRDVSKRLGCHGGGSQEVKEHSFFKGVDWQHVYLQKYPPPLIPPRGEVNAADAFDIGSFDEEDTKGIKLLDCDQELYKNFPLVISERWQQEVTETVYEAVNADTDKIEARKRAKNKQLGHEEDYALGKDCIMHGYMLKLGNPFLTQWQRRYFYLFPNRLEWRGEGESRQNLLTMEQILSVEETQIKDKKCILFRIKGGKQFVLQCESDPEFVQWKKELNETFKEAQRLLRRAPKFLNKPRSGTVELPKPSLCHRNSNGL
Summary of the method: as §1

[3] = molecular target: EGFR(S752-I759del) (Homo sapiens, UniProt P00533, DEL752-759); conditions: read-out: % control
EGFR(S752-I759del), sequence (P00533 with tags, fused parts or gaps DEL752-759): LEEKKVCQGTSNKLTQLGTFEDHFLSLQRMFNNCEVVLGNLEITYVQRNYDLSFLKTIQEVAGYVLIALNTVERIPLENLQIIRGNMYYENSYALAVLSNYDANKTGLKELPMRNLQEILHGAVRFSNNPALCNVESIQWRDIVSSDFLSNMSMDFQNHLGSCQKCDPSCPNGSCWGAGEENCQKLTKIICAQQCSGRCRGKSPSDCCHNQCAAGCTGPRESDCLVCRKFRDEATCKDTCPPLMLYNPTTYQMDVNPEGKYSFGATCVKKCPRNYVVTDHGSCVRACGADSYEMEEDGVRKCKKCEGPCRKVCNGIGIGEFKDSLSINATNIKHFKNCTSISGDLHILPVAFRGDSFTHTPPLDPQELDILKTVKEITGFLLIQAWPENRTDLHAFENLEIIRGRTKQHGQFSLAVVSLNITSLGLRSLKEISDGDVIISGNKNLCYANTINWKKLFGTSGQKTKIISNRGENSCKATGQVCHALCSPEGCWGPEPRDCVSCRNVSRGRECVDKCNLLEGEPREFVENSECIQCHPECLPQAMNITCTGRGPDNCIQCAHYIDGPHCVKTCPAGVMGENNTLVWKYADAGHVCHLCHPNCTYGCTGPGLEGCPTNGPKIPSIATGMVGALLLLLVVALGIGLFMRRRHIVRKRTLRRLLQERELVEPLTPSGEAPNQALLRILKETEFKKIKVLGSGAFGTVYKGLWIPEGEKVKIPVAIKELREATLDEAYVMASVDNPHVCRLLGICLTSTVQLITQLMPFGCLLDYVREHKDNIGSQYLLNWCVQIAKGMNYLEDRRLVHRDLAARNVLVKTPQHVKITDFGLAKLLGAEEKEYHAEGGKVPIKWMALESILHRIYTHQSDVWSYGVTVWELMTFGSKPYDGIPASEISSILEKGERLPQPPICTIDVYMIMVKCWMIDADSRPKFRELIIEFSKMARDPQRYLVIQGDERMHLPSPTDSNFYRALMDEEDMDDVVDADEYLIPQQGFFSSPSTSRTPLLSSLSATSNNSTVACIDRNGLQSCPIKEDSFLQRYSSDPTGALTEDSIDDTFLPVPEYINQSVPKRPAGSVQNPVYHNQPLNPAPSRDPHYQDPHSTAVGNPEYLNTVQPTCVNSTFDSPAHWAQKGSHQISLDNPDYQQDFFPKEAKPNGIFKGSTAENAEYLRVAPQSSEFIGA
Summary of the method: as §1

[4] = molecular target: T3, STK16 (Homo sapiens, UniProt O75716); conditions: STK16, 1 μM; read-out: % control
T3 construct: purchased KinomeScan® (panel service)
T3 sequence (O75716 whole entry): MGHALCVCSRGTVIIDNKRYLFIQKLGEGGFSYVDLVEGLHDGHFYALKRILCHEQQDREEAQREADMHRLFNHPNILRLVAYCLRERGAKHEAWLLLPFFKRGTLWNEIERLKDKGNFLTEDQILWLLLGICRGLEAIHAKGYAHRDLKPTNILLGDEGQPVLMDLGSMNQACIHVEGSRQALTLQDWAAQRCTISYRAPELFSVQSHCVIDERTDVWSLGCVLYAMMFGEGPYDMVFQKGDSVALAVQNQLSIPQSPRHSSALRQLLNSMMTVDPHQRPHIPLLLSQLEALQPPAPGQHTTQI
Summary of the method: as §1

[5] = molecular target: MYLK2 (Homo sapiens, UniProt Q9H1R3); conditions: MYLK2, 1 μM; read-out: % control
MYLK2, sequence (Q9H1R3 whole entry): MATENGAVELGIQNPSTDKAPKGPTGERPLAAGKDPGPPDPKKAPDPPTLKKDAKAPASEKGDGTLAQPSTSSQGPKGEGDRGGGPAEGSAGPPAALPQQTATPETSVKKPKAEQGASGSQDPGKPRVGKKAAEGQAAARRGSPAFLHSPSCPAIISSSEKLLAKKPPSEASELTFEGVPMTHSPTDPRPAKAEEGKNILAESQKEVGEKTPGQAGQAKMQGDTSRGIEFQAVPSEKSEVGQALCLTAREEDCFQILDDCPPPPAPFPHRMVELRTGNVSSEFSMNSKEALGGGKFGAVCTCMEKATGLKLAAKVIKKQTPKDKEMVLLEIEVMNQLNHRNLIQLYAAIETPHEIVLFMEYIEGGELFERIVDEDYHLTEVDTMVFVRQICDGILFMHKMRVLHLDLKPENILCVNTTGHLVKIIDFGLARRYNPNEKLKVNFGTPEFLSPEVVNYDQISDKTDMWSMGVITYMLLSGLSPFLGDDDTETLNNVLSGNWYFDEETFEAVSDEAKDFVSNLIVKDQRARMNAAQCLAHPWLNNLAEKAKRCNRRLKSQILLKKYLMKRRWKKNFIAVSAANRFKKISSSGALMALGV
Summary of the method: as §1

[6] = molecular target: T4, DCAMKL3 (Homo sapiens, UniProt Q9C098); conditions: DCAMKL3, 1 μM; read-out: % control
T4 sequence (Q9C098 1-648): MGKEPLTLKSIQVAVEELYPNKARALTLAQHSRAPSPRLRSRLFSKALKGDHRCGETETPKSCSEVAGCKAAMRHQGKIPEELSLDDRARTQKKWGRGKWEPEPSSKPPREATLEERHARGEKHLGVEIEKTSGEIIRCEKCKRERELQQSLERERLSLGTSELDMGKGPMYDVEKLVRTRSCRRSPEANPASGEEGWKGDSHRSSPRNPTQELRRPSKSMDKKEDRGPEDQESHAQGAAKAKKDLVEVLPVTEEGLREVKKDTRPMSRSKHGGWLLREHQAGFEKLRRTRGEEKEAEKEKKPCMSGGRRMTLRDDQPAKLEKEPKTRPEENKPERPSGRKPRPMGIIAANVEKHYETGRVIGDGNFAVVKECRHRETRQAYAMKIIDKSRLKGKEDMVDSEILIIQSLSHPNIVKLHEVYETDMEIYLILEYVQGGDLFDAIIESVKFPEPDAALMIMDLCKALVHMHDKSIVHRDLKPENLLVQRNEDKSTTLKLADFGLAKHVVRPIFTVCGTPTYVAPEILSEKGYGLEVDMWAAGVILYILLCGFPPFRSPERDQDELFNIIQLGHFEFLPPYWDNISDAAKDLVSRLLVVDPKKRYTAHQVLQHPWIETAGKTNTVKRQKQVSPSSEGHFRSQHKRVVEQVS
Summary of the method: as §1

[7] = molecular target: T5, GRK7 (Homo sapiens, UniProt Q8WTQ7); conditions: GRK7, 1 μM; read-out: % control
T5 sequence (Q8WTQ7 1-553): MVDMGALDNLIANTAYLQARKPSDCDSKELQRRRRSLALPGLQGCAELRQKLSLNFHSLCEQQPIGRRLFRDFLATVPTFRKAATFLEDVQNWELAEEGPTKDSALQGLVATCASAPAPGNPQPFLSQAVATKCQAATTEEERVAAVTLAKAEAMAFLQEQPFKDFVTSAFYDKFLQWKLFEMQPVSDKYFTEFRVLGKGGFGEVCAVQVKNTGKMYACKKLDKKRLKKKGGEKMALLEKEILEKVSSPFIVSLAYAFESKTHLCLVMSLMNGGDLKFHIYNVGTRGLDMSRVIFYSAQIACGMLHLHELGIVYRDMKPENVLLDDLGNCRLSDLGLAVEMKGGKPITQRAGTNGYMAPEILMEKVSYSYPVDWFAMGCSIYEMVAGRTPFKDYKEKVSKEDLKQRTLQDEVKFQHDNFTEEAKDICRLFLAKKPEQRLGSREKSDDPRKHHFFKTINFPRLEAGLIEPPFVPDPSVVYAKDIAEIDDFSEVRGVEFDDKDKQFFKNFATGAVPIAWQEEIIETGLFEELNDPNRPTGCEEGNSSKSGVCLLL
Summary of the method: as §1

T1 sequence (P42684 whole entry): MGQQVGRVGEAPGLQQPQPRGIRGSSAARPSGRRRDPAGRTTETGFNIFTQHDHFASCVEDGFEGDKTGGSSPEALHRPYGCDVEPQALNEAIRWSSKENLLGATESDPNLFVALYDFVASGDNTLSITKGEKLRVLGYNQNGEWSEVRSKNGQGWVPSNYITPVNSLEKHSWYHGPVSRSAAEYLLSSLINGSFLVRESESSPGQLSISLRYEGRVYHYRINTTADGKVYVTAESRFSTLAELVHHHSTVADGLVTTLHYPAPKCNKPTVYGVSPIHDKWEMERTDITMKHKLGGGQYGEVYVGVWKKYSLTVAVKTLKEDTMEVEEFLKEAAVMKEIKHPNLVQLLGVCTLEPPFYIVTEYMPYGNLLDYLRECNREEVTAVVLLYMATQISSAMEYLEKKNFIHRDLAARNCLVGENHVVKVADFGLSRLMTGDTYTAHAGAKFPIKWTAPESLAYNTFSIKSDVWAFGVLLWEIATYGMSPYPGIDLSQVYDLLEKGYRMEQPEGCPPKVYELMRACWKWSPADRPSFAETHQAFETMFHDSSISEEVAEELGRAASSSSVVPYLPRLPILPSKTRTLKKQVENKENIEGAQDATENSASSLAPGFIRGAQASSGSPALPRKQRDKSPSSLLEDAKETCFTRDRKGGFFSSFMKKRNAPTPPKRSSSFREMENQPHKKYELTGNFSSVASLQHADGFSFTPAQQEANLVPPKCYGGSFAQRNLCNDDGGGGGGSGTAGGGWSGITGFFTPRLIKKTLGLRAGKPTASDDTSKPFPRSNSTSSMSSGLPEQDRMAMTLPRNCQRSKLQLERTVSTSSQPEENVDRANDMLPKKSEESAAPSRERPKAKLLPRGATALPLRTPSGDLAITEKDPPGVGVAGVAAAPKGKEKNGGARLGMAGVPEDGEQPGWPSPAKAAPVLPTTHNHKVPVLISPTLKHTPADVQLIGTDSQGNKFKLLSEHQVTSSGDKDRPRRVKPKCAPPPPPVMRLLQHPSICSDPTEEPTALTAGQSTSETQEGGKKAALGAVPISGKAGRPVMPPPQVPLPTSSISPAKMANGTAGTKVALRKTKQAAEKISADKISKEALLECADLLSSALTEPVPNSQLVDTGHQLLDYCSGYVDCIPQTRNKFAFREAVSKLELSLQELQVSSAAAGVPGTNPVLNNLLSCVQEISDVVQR

Row | Compound | remaining binding at 1 µM [1] [%] | remaining binding at 1 µM [2] [%] | remaining binding at 1 µM [3] [%] | remaining binding at 1 µM [4] [%] | remaining binding at 1 µM [5] [%] | remaining binding at 1 µM [6] [%] | remaining binding at 1 µM [7] [%]
1 | CNc1c(-c2cnn([C@H]3CCN(C(C)=O)C[C@@H]3F)c2)cnc2[nH]cc(Cl)c12 [Compound 77, 1-((3S,4S)-4-(4-(3-chloro-4-(methylamino)-1H-pyrrolo[2,3-b]pyridin-5-yl)-1H-pyrazol-1-yl)-3-fluoropiperidin-1-yl)ethan-1-one] | 92 | 93 | 100 | 2.9 | 79 | 95 | 100
2 | O=C(c1ccc(-c2cnc3[nH]cc(Cl)c3c2NC2CCCC2)cc1)N1CCC(N2CCOCC2)CC1 [Compound 101, (4-(3-chloro-4-(cyclopentylamino)-1H-pyrrolo[2,3-b]pyridin-5-yl)phenyl)(4-morpholinopiperidin-1-yl)methanone] | 99 | 94 | 100 | 13 | 94 | 84 | 94
3 | CNc1c(-c2ccc(C(=O)N3CCC(N4CCOCC4)CC3)cc2)cnc2[nH]cc(Cl)c12 [Compound 96, (4-(3-chloro-4-(methylamino)-1H-pyrrolo[2,3-b]pyridin-5-yl)phenyl)(4-morpholinopiperidin-1-yl)methanone] | 100 | 92 | 98 | 2 | 51 | 99 | 100

Reference: patent US12275731B2, “Azaindole inhibitors of wild-type and mutant forms of LRRK2” (DANA-FARBER CANCER INSTITUTE, INC., priority 2018, dated 2025)
